# Test results: the supplement of paper PMC10307832
# What was measured:
# Test in all cases: relative viability (nuclei count vs DMSO), 5 days (fraction); higher = more cells survive
# NCI-H1666 = test system: NCI-H1666
# In short: (§1)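 A single step with final 0.05% Triton X-100, 1% formaldehyde and 1 ug/ml Hoechst fixed the cells and stained nuclei 5 days after treatment. Lung cancer cell lines in 1536-well plates had been treated by pin tool the day after seeding with one drug alone or a fixed anchor-drug dose plus five library-drug doses (not always all listed) in √10 steps, and nuclei were counted on 4× images. Relative viability is the ratio of nuclei in treated wells to nuclei in vehicle wells, taken as the median of duplicate plates.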
# NCI-H2085 = test system: NCI-H2085
# In short: as §1
# NCI-H661 = test system: NCI-H661
# In short: as §1
# ABC-1 = test system: ABC-1
# In short: as §1
# NCI-H1355 = test system: NCI-H1355
# In short: as §1
# NCI-H838 = test system: NCI-H838
# In short: as §1
# NCI-H647 = test system: NCI-H647
# In short: as §1
# HOP-62 = test system: HOP-62
# In short: as §1
# NCI-H23 = test system: NCI-H23
# In short: as §1
# NCI-H2347 = test system: NCI-H2347
# In short: as §1
# NCI-H2228 = test system: NCI-H2228
# In short: as §1
# 201T = test system: 201T
# In short: as §1
# CAL-12T = test system: CAL-12T
# In short: as §1
# HCC-44 = test system: HCC-44
# In short: as §1
# NCI-H2170 = test system: NCI-H2170
# In short: as §1
# LCLC-103H = test system: LCLC-103H
# In short: as §1
# NCI-H1993 = test system: NCI-H1993
# In short: as §1
# COR-L23 = test system: COR-L23
# In short: as §1
# NCI-H1651 = test system: NCI-H1651
# In short: as §1
# NCI-H520 = test system: NCI-H520
# In short: as §1
# NCI-H322M = test system: NCI-H322M
# In short: as §1
# LC-2-ad = test system: LC-2-ad
# In short: as §1
compound,measurement,setting,value
O=C(O)CCCCC(CCSCc1ccccc1)SCc1ccccc1 (centres undefined) [CPI-613] + C[C@@H](Oc1cc(-c2cnn(C3CCNCC3)c2)cnc1N)c1c(Cl)ccc(F)c1Cl [Crizotinib] (partner 1 µM),relative viability,NCI-H1666; first compound 5 µM,0.863
same,relative viability,NCI-H1666; first compound 15.81 µM,0.995
same,relative viability,NCI-H1666; first compound 50 µM,1.03
same,relative viability,NCI-H1666; first compound 158.11 µM,0.236
same,relative viability,NCI-H1666; first compound 500 µM,0.131
same,relative viability,NCI-H2085; first compound 5 µM,0.786
same,relative viability,NCI-H2085; first compound 15.81 µM,0.886
same,relative viability,NCI-H2085; first compound 50 µM,0.839
same,relative viability,NCI-H2085; first compound 158.11 µM,0.415
same,relative viability,NCI-H2085; first compound 500 µM,0.231
same,relative viability,NCI-H661; first compound 15.81 µM,1.03
same,relative viability,NCI-H661; first compound 50 µM,0.997
same,relative viability,NCI-H661; first compound 158.11 µM,1.15
same,relative viability,NCI-H661; first compound 500 µM,0.817
same,relative viability,ABC-1; first compound 5 µM,0.984
same,relative viability,ABC-1; first compound 15.81 µM,0.855
same,relative viability,ABC-1; first compound 50 µM,0.875
same,relative viability,ABC-1; first compound 158.11 µM,0.367
same,relative viability,ABC-1; first compound 500 µM,0.213
same,relative viability,NCI-H1355; first compound 5 µM,1.09
same,relative viability,NCI-H1355; first compound 15.81 µM,1.01
same,relative viability,NCI-H1355; first compound 50 µM,1.07
same,relative viability,NCI-H1355; first compound 158.11 µM,0.152
same,relative viability,NCI-H1355; first compound 500 µM,0.136
same,relative viability,NCI-H838; first compound 5 µM,0.882
same,relative viability,NCI-H838; first compound 15.81 µM,0.833
same,relative viability,NCI-H838; first compound 50 µM,0.803
same,relative viability,NCI-H838; first compound 158.11 µM,0.598
same,relative viability,NCI-H838; first compound 500 µM,0.0806
same,relative viability,NCI-H647; first compound 5 µM,0.853
same,relative viability,NCI-H647; first compound 15.81 µM,1.01
same,relative viability,NCI-H647; first compound 50 µM,0.769
same,relative viability,NCI-H647; first compound 158.11 µM,0.0681
same,relative viability,NCI-H647; first compound 500 µM,0.0175
same,relative viability,HOP-62; first compound 5 µM,0.862
same,relative viability,HOP-62; first compound 15.81 µM,0.85
same,relative viability,HOP-62; first compound 50 µM,0.851
same,relative viability,HOP-62; first compound 158.11 µM,0.172
same,relative viability,HOP-62; first compound 500 µM,0.387
same,relative viability,NCI-H23; first compound 5 µM,0.542
same,relative viability,NCI-H23; first compound 15.81 µM,0.563
same,relative viability,NCI-H23; first compound 50 µM,0.488
same,relative viability,NCI-H23; first compound 158.11 µM,0.189
same,relative viability,NCI-H23; first compound 500 µM,0.0618
same,relative viability,NCI-H2347; first compound 5 µM,0.645
same,relative viability,NCI-H2347; first compound 15.81 µM,0.555
same,relative viability,NCI-H2347; first compound 50 µM,0.695
same,relative viability,NCI-H2347; first compound 158.11 µM,0.669
same,relative viability,NCI-H2347; first compound 500 µM,0.55
same,relative viability,NCI-H2228; first compound 5 µM,0.513
same,relative viability,NCI-H2228; first compound 15.81 µM,0.481
same,relative viability,NCI-H2228; first compound 50 µM,0.52
same,relative viability,NCI-H2228; first compound 158.11 µM,0.203
same,relative viability,NCI-H2228; first compound 500 µM,0.0468
same,relative viability,201T; first compound 5 µM,1.04
same,relative viability,201T; first compound 15.81 µM,0.989
same,relative viability,201T; first compound 50 µM,0.94
same,relative viability,201T; first compound 158.11 µM,0.93
same,relative viability,201T; first compound 500 µM,0.984
same,relative viability,CAL-12T; first compound 5 µM,0.596
same,relative viability,CAL-12T; first compound 15.81 µM,0.504
same,relative viability,CAL-12T; first compound 50 µM,0.471
same,relative viability,CAL-12T; first compound 158.11 µM,0.0667
same,relative viability,CAL-12T; first compound 500 µM,0.0085
same,relative viability,HCC-44; first compound 5 µM,0.834
same,relative viability,HCC-44; first compound 15.81 µM,0.791
same,relative viability,HCC-44; first compound 50 µM,0.785
same,relative viability,HCC-44; first compound 158.11 µM,0.295
same,relative viability,HCC-44; first compound 500 µM,0.0369
same,relative viability,NCI-H2170; first compound 5 µM,1.15
same,relative viability,NCI-H2170; first compound 15.81 µM,1.18
same,relative viability,NCI-H2170; first compound 50 µM,1.13
same,relative viability,NCI-H2170; first compound 158.11 µM,0.746
same,relative viability,NCI-H2170; first compound 500 µM,0.335
same,relative viability,LCLC-103H; first compound 5 µM,1.11
same,relative viability,LCLC-103H; first compound 15.81 µM,1.1
same,relative viability,LCLC-103H; first compound 50 µM,0.917
same,relative viability,LCLC-103H; first compound 158.11 µM,0.855
same,relative viability,LCLC-103H; first compound 500 µM,0.861
same,relative viability,NCI-H1993; first compound 5 µM,0.862
same,relative viability,NCI-H1993; first compound 15.81 µM,0.852
same,relative viability,NCI-H1993; first compound 50 µM,1.01
same,relative viability,NCI-H1993; first compound 158.11 µM,0.639
same,relative viability,NCI-H1993; first compound 500 µM,0.438
same,relative viability,COR-L23; first compound 5 µM,0.635
same,relative viability,COR-L23; first compound 15.81 µM,0.598
same,relative viability,COR-L23; first compound 50 µM,0.647
same,relative viability,COR-L23; first compound 158.11 µM,0.226
same,relative viability,COR-L23; first compound 500 µM,0.0141
same,relative viability,NCI-H1651; first compound 5 µM,0.838
same,relative viability,NCI-H1651; first compound 15.81 µM,0.769
same,relative viability,NCI-H1651; first compound 50 µM,0.922
same,relative viability,NCI-H1651; first compound 158.11 µM,0.818
same,relative viability,NCI-H1651; first compound 500 µM,0.927
same,relative viability,NCI-H520; first compound 5 µM,0.721
same,relative viability,NCI-H520; first compound 15.81 µM,0.716
same,relative viability,NCI-H520; first compound 50 µM,0.626
same,relative viability,NCI-H520; first compound 158.11 µM,0.233
same,relative viability,NCI-H520; first compound 500 µM,0.106
same,relative viability,NCI-H322M; first compound 5 µM,0.917
same,relative viability,NCI-H322M; first compound 15.81 µM,0.917
same,relative viability,NCI-H322M; first compound 50 µM,1
same,relative viability,NCI-H322M; first compound 158.11 µM,0.996
same,relative viability,NCI-H322M; first compound 500 µM,1.01
same,relative viability,LC-2-ad; first compound 5 µM,0.444
same,relative viability,LC-2-ad; first compound 15.81 µM,0.432
same,relative viability,LC-2-ad; first compound 50 µM,0.417
same,relative viability,LC-2-ad; first compound 158.11 µM,0.529
same,relative viability,LC-2-ad; first compound 500 µM,0.51
